Test [1] concerns bLPL. Kind of test: Lipase activity assay, protection against spontaneous LPL inactivation. The following applies: 15 nM bLPL preincubated 20 min at 22°C with 1 μM synthetic peptide; Intralipid substrate, NEFA release 25 min; triplicates. Type of test: biochemical, bovine. The method, then: To determine lipase activity, 90 μl incubation mixture containing 166 mM NaCl, 28 U/ml heparin, 10% (w/v) fatty acid-free serum albumin, 250 mM Tris-HCl (pH 8.5), 0.16% intralipid, and 6% (v/v) chicken serum was mixed with 60 μl of sample buffer consisting of 150 mM NaCl, 0.1% (w/v) fatty acid-free serum albumin, 0.01% (v/v) Triton X-100, 10 mM HEPES (pH 7.4) and 15 nM bLPL. After 25 min incubation, non-esterified fatty acids (NEFA) released by LPL were quantified using the NEFA-HR kit according to manufacturer protocol (Wako Chemicals).
To address this question, we preincubated 15 nM purified bLPL for 20 min in the presence of 1 μM of synthetic peptides with different chain lengths and covering distinct regions of the first 33 residues in GPIHBP1 (supplemental Table S1). The residual bLPL activity was subsequently assessed by quantifying the release of non-esterified free fatty acids after a 25-min incubation with a lipid substrate emulsion (Intralipid) using the NEFA2-kit. […]
Fig. 2 LPL activity after incubation with synthetic peptides covering the acidic tail of GPIHBP^1–33 Purified bLPL (15 nM) was preincubated either alone or in the presence of 1 μM synthetic peptides or 150 nM GPIHBP1 for 20 min in 10 mM HEPES, 150 mM NaCl pH 7.4 at 22°C before LPL activity was assessed using Intralipid® as substrate. […]

In test [2] the test system is hLPL bound to immobilized heparan sulfate. Kind of test: GPIHBP1-mediated extraction of LPL from HSPGs (SPR, immobilized heparin dp4 fragments). Type of test: binding, human. Particulars: 12.5–200 nM GPIHBP1 proteins, 0.1–1.6 μM sulfated GPIHBP1^1–33, or GPIHBP1^34–131 with 1 μM sulfated GPIHBP1^1–33. An excerpt:
To mimic electrostatic conditions found in the sub-endothelial spaces where surface-bound heparan-sulfate proteoglycans (HSPGs) are abundant, we designed a surrogate sensor surface using a streptavidin-coated CM5 sensor chip to capture high densities of biotinylated synthetic heparin dp4 fragments ([28], [29]). The reference surface was loaded with a neutral and non-sulfated fragment (M09 S00 from Iduron), while the active surface was loaded with a negatively charged fragment (M09 S08a from Iduron) containing N- and O-6-linked sulfations on each of the […] glucosamine residues in the DP4 fragment. Only the highly sulfated oligosaccharide bound LPL, and those interactions were transient with high off-rates. Despite the very transient nature of this binding, we created a stable reservoir of hLPL on the sensor surface by combining the fast kinetics of polyelectrolyte interactions with severe mass transport limitation—the latter phenomenon impedes LPL escape from the surface due to the fast rebinding that is favored by the high densities of immobilized heparin fragments (300 fmol/mm^2). For each experiment, 12.5 nM hLPL was loaded for 100 s at a flow rate of 20 μl/min in 10 mM Hepes (pH 7.4), 150 mM NaCl, 4 mM CaCl2, 10% (vol/vol) glycerol, 0.05% (vol/vol) surfactant P20, 1 mg/ml defatted BSA, […], and 0.05% (wt/vol) NaN3.
To compare the ability of GPIHBP1^1–131 and its charge variants to bind and extract hLPL from this dynamic reservoir, we injected twofold serial dilutions of 1.25–200 nM GPIHBP1^1–131; 1.25–200 nM GPIHBP1^Cluster1-neutral; GPIHBP1^Cluster2-neutral; 1.25–200 nM GPIHBP1^34–131; 0.1–1.6 μM GPIHBP1^1–33 with Tyr^18–SO4; or 1.25–200 nM GPIHBP1^34–131 in the presence of 1 μM sulfated GPIHBP1^1–33 for 250 s at 20 μl/min in 10 mM Hepes (pH 7.4), 150 mM NaCl, 4 mM CaCl2, 10% (vol/vol) glycerol, 0.05% (vol/vol) surfactant P20, 0.2 mg/ml fatty acid-free BSA, and 0.05% (wt/vol) NaN3. At the end of each cycle, two consecutive injections of 10 μl 3 M guanidinium chloride regenerated the chip.
GPIHBP1’s ability to displace LPL from its HSPG-bound state in the sub-endothelial spaces is essential for the trans-endothelial trafficking of LPL to the luminal surface of capillary cells ([29]). The importance of the acidic tail in this process is supported by solid evidence from surrogate in vitro models and in vivo studies in gene-edited mice ([28], [29]). It was therefore important to determine the relative impact of the two charge-clusters in GPIHBP1 on their ability to disrupt LPL•HSPG interactions. To gain this insight, we measured the ability of different GPIHBP1 charge variants to displace hLPL from a SPR sensor chip surface coupled with a high density of immobilized small heparin-like fragments ([28]). […]

Turning to “GPIHBP1^1–33: Synthetic peptide representing the N-terminal acidic tail of GPIHBP1, first 33 residues (QTQQEEEEEDEDHGPDDYDEEDEDEVEEEETNR; UniProt Q8IV16 21-53, looked up, fragment)”, in test [1], the “preserving bLPL activity against spontaneous inactivation” value is “as efficient as 150 nM GPIHBP1^1–131”. In addition, the “competitive displacement of HSPG-bound hLPL (in words)” value in test [2] is “neither GPIHBP1^34–131 nor GPIHBP1^1–33 alone, or in combination, induced any detachment of LPL”.

Source of the values: PMC11869522, “Competitive displacement of lipoprotein lipase from heparan sulfate is orchestrated by a disordered acidic cluster in GPIHBP1” (Journal of Lipid Research, 2025).
